From US9486474B2, “Interstitial therapy for immediate symptom relief and chronic therapy in interstitial cystitis” (THE REGENTS OF THE UNIVERSITY OF CALIFORNIA, priority 2004, dated 2016)

Experiments:
IC patients [1] = settings: intravesical DMSO therapy; cited from earlier work
IC patients [2] = assay: heparin versus PPS in the intravesical therapeutic solution (preliminary data); assay type: in vivo, human
Text: Data from preliminary studies for one embodiment of an intravesical therapeutic solution can provide immediate temporary relief of the symptoms of urgency and pain in IC patients [Dell and Parsons, Abstract presented at NIDDK/Interstitial Cystitis Association Symposium, Research Insights into Interstitial Cystitis, Alexandria, Va., (Oct. 30-Nov. 1, 2003); Davis, et al. Abstract presented at NIDDK/Interstitial Cystitis Association Symposium, Research Insights into Interstitial Cystitis, Alexandria, Va. (Oct. 30-Nov. 1, 2003); Parsons, Contemp Urol 15: 22-24, 27-28, 31-32, 35 (2003)]. One of the methods of the present invention combines heparin and lidocaine buffered with sodium bicarbonate to pH >8.0 via direct catheter delivery to the bladder, providing immediate and long term pain relief for chronic IC sufferers. In some embodiments, the solution contains 10,000-40,000 units of heparin. In some embodiments, heparin is replaced by 100-200 mg PPS (the contents of an oral capsule dissolved in 10 mL buffered normal saline), 10 mL 1% lidocaine or 16 mL 2% lidocaine, and 3 mL 8.4% sodium bicarbonate (w/v). The solution is instilled into the empty bladder and retained for approximately 30 minutes. The principal difference between this therapeutic solution and other such solutions is the presence of sodium bicarbonate, which dramatically increases the absorption of the lidocaine. […]

IC = settings: oral PPS, after 8 to 12 months of therapy; cited from earlier work

| Compound | IC patients treated who benefit (IC patients [1]) | efficacy in the therapeutic solution, heparin compared with PPS (IC patients [2]) | response rate (IC) |
| --- | --- | --- | --- |
| C[S+](C)[O-] [DMSO, dimethylsulfoxide] | approximately 50% | – | – |
| heparin | – | equal efficacy | – |
| pentosan polysulfate sodium [PPS] | – | equal efficacy | approximately 70% |
